How the values were obtained:
[1] = target: T1, rat brain acetylcholinesterase (Rattus norvegicus, UniProt P37136); assay: Rat brain acetylcholinesterase inhibition (Ellman method); type: biochemical; conditions: rat brain enzyme; 15 min pre-incubation at 25° C.; acetyl thiocholine iodide 0.5 mM; pH 7.4; read-out: IC50 against rat brain AchE
T1 construct: from tissue; host or cells: rat brain
T1 sequence (P37136 32-614): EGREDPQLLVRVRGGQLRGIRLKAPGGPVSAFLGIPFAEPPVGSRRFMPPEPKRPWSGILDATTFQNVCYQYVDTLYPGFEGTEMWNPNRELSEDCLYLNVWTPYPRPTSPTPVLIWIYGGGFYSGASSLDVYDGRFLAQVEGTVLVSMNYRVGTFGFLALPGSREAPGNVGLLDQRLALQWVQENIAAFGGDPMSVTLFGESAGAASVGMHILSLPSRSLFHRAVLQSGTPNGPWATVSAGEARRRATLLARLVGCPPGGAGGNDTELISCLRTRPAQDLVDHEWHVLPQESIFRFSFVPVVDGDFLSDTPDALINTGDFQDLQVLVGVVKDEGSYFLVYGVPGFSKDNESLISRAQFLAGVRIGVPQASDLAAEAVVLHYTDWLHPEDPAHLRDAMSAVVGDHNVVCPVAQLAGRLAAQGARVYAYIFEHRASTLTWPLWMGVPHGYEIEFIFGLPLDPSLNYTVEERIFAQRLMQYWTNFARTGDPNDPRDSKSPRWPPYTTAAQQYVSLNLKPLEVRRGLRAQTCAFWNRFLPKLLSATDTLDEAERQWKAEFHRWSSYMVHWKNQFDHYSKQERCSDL
Method: Absorbance change at 412 nm is monitored every 30 seconds for 2 min in an UV-VIS Spectrophotometer. Inhibition is calculated relative to the solvent control. IC50 is determined by regression analysis.

[2] = target: T2, acetylcholinesterase from erythrocytes (Homo sapiens, UniProt P22303); assay: Erythrocyte acetylcholinesterase inhibition; type: biochemical, rat; conditions: erythrocyte enzyme; read-out: IC50 against acetylcholinesterase from erythrocytes
T2 construct: from tissue; host or cells: erythrocytes

[3] = tested on: serine esterase of the rat liver serum; assay: Serine esterase inhibition; type: biochemical
[4] = tested on: mosquito larvae culex quinquifasciatus; assay: Insecticidal activity against mosquito larvae; type: in vivo; conditions: in water (70 ppm); exposed for 24 hrs
Method: Yet another embodiment of the present invention, wherein said compound effective against mosquito larvae at an optimum concentration of 70 μg/ml water (70 ppm) when exposed for 24 hrs.
Still another embodiment of the present invention, wherein the insecticidal activity of the compound against mosquito larvae is selected from culex quinquifasciatus.

[5] = Solubility in organic solvents; type: physicochemical; conditions: in ethyl acetate, methanol and acetone

T2 sequence (P22303 32-617 isoform P22303-2 limits assumed): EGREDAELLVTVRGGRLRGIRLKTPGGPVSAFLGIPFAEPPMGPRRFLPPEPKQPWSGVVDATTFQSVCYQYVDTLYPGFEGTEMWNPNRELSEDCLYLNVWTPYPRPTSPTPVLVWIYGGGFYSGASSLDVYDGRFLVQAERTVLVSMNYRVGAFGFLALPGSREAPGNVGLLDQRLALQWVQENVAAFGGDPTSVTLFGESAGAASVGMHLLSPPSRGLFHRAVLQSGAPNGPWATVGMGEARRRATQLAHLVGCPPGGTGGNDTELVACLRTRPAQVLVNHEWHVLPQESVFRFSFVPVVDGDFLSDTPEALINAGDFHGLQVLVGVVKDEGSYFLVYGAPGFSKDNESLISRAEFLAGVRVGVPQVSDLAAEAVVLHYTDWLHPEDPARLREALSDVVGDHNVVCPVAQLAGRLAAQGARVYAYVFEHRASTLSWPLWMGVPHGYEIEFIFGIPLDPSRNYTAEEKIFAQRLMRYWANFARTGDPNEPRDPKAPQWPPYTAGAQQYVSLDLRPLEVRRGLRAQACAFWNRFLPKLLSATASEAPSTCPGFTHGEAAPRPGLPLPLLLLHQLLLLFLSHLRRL

COc1ccc(C(=O)O)c(C(O)CCCCCCCC(=O)CC(C)O)c1 (centres unmarked) [Sporotricolone, 12-(2′-CARBOXY-5′-METHOXYPHENYL)-2,12-DIHYDROXY-DODECA-4-ONE]
IC50 [1]: 20 µM | IC50 [2]: 20 µM | inhibition of serine esterase of the rat liver serum [3]: inhibitor | optimum concentration effective against mosquito larvae [4]: 70 µg/mL | Solubility [5]: Highly soluble
